How the values were obtained:
[1] = tested on: A2780 (human ovary adenocarcinoma) cells; test: MTT cytotoxicity assay, A2780; type: cell-based
Description: (§1) The cytotoxicity of the synthesised quinazolin-4(3H)-ones was evaluated by MTT assay, as previously described. Two cancer cell lines, MCF7 (human breast adenocarcinoma) and A2780 (human ovary adenocarcinoma), were used in this study, which were obtained from the ATCC (Rockville, MD, USA). […] Additionally, compounds were prepared at the same medium to obtain serial dilutions (50, 25, […] and 0.1 µM). […] The media were aspirated, and the formazan crystals were solubilised by adding 150 µL DMSO. Absorbance was read on a multi-plate reader (BioRad) at […]. […] The data were obtained from triplicates and analysed using statistical software.

[2] = tested on: MCF7 (human breast adenocarcinoma) cells; test: MTT cytotoxicity assay, MCF7; type: cell-based
Description: as §1

HER2 = molecular target: T1, HER2 (Homo sapiens, UniProt P04626); test: HER2 kinase assay kit, Kinase-Glo MAX luminescence; type: biochemical; conditions: one experimental data
T1 construct: purchased #40721
Description: The HER2/EGFR/VEGFR2 assay kit is designed to measure HER2/EGFR/VEGFR-2 inhibitory activity for screening and profiling applications, using Kinase-Glo® MAX as a detection reagent. The HER2/EGFR/VEGFR2 assay kit comes in a convenient 96-well format, with enough purified recombinant HER2/EGFR/VEGFR2 enzyme, HER2/EGFR/VEGFR2 substrate, ATP and kinase buffer 1 for 100 enzyme reactions. […] […] The quinazolin-4(3H)-ones were diluted in 10% DMSO and 5 μl of the dilution was added to a 50 μl reaction so that the final concentration of DMSO was 1% in all of the reactions. All of the enzymatic reactions were conducted at 30 °C for 40 min. The 50 μl reaction mixture contained 40 mM Tris, pH 7.4, 10 mM MgCl2, 0.1 mg/mL BSA, 1 mM DTT, 10 mM ATP, kinase substrate and the enzyme HER2 / EGFR / VEGFR2. After the enzymatic reaction, 50 μl of Kinase-Glo® MAX luminescence kinase assay solution was added to each reaction and the plates were incubated for 5 min at room temperature. Luminescence signal was measured using a Bio Tek Synergy 2 microplate reader (For detail enzyme assay protocol and the results, please see supplementary data).

[3] = Homo sapiens, A2780, mean ± SD of triplicate
[4] = Homo sapiens, MCF7, mean ± SD of triplicate

T1 sequence (P04626 23-1255): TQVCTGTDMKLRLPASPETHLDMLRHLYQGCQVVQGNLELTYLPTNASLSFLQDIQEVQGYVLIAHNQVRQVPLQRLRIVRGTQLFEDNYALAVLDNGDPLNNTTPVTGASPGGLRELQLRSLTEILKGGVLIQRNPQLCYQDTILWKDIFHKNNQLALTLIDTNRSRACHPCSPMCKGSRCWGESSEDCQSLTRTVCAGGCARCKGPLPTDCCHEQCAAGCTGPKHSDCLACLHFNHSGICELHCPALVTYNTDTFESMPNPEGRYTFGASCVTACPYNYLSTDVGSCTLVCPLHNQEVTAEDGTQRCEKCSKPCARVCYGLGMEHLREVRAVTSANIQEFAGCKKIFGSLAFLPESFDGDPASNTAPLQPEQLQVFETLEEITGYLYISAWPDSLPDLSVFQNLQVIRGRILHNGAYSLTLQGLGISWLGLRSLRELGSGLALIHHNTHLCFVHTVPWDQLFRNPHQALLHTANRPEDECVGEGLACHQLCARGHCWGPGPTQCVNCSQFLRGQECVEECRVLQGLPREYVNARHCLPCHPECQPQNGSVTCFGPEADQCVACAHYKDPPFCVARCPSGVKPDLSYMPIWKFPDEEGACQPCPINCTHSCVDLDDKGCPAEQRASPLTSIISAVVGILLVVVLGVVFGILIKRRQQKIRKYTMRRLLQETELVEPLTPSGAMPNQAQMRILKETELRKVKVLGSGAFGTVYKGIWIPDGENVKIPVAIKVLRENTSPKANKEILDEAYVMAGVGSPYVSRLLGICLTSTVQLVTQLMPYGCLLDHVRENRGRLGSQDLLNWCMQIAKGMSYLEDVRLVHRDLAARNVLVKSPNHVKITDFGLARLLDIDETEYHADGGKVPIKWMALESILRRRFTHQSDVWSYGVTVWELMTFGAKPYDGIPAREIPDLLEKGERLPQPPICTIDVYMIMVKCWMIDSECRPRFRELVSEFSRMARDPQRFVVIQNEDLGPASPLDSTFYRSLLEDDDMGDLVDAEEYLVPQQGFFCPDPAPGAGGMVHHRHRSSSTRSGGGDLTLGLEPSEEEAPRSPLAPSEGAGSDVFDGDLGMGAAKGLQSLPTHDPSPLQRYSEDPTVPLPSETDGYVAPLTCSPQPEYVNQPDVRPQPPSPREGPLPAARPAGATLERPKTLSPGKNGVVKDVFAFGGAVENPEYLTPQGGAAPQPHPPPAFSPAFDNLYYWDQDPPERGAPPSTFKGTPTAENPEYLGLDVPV

Question: For “2-((5-Chloro-6-methyl-4-oxo-3-phenyl-3,4-dihydroquinazolin-2-yl)thio)acetohydrazide [3e]”, which IC50 ([1]; mean ± SD of triplicate) is on record?
Answer: 0.92 ± 0.11 µM

Question: And the IC50 ([2]; mean ± SD of triplicate)?
Answer: 0.74 ± 0.23 µM

Question: Which results are given for `CCOC(=O)CSc1nc2ccc(Cl)cc2c(=O)n1-c1ccccc1` [2a, Ethyl 2-((6-chloro-4-oxo-3-phenyl-3,4-dihydroquinazolin-2-yl)thio)acetate]?
Answer: IC50 [1, 3]: 2.05 ± 0.64 µM; IC50 [2, 4]: 1.5 ± 0.01 µM; melting point: 85 to 87 °C

Question: Which results are given for `CCOC(=O)CSc1nc2ccc(F)cc2c(=O)n1-c1ccccc1` [2b, Ethyl 2-((6-fluoro-4-oxo-3-phenyl-3,4-dihydroquinazolin-2-yl)thio)acetate]?
Answer: IC50 [1, 3]: 2.98 ± 0.3 µM; IC50 [2, 4]: 15.72 ± 0.07 µM; melting point: 124 to 127 °C

Question: With `CCOC(=O)CSc1nc2c(F)cc(F)cc2c(=O)n1-c1ccccc1` [2c, Ethyl 2-((6,8-difluoro-4-oxo-3-phenyl-3,4-dihydroquinazolin-2-yl)thio)acetate] as the molecule, how does the IC50 [1, 3] read?
Answer: 0.49 ± 0.05 µM

Question: What about the IC50 [2, 4] of the same molecule?
Answer: 0.73 ± 0.18 µM

Question: What about the melting point of the same molecule?
Answer: 151 to 153 °C

Question: What does the source list for `CCOC(=O)CSc1nc2cc(OC)c(OC)cc2c(=O)n1-c1ccccc1` [2d, Ethyl 2-((6,7-dimethoxy-4-oxo-3-phenyl-3,4-dihydroquinazolin-2-yl)thio)acetate]?
Answer: IC50 [1, 3]: 1.23 ± 0.1 µM; IC50 [2, 4]: 1.56 ± 0.02 µM; melting point: 145 to 146 °C

Question: With `NNC(=O)CSc1nc2ccc(Cl)cc2c(=O)n1-c1ccccc1` [3a, 2-((6-Chloro-4-oxo-3-phenyl-3,4-dihydroquinazolin-2-yl)thio)acetohydrazide] as the molecule, how does the IC50 [1, 3] read?
Answer: 3 ± 1.2 µM

Question: What about the IC50 [2, 4] of the same molecule?
Answer: 0.2 ± 0.02 µM

Question: What about the melting point of the same molecule?
Answer: 181 to 183 °C

Question: With `NNC(=O)CSc1nc2ccc(F)cc2c(=O)n1-c1ccccc1` [3b, 2-((6-Fluoro-4-oxo-3-phenyl-3,4-dihydroquinazolin-2-yl)thio)acetohydrazide] as the molecule, how does the IC50 [1, 3] read?
Answer: 0.3 ± 0.06 µM

Question: What about the IC50 [2, 4] of the same molecule?
Answer: 1.32 ± 0.12 µM

Question: And the melting point?
Answer: 192 to 194 °C

Question: With `NNC(=O)CSc1nc2c(F)cc(F)cc2c(=O)n1-c1ccccc1` [3c, 2-((6,8-Difluoro-4-oxo-3-phenyl-3,4-dihydroquinazolin-2-yl)thio)acetohydrazide] as the molecule, how does the IC50 [1, 3] read?
Answer: 1.21 ± 0.01 µM

Question: And the IC50 [2, 4]?
Answer: 0.33 ± 0.03 µM

Question: What about the melting point of the same molecule?
Answer: 201 to 203 °C

Question: With `COc1cc2nc(SCC(=O)NN)n(-c3ccccc3)c(=O)c2cc1OC` [3d, 2-((6,7-Dimethoxy-4-oxo-3-phenyl-3,4-dihydroquinazolin-2-yl)thio)acetohydrazide] as the molecule, how does the IC50 [1, 3] read?
Answer: 0.77 ± 0.66 µM

Question: What about the IC50 [2, 4] of the same molecule?
Answer: 0.5 ± 0.29 µM

Question: And the melting point?
Answer: 166 to 168 °C

Question: With `CS(=O)(=O)CCNCc1ccc(-c2ccc3ncnc(Nc4ccc(OCc5cccc(F)c5)c(Cl)c4)c3c2)o1` [lapatinib, reference compound] as the molecule, how does the IC50 [1, 3] read?
Answer: 11.1 ± 1.03 µM

Question: And the IC50 ([1]; mean ± SD of triplicate)?
Answer: 12.1 ± 1.03 µM

Question: What about the inhibition at 0.01 µM (HER2; 0.01 µM) of the same molecule?
Answer: 23.3%

Question: What about the inhibition at 0.1 µM (HER2; 0.1 µM) of the same molecule?
Answer: 23.2%

Question: And the inhibition at 1 µM (HER2; 1 µM)?
Answer: 84.3%

Question: And the inhibition at 10 µM (HER2; 10 µM)?
Answer: 92.2%

Question: And the IC50 [2, 4]?
Answer: 5.9 ± 0.74 µM

Question: Which IC50 ([1]; mean ± SD of triplicate) does the source give for “Ethyl 2-((5-chloro-6-methyl-4-oxo-3-phenyl-3,4-dihydroquinazolin-2-yl)thio)acetate [2e]” here?
Answer: 16.4 ± 1.8 µM

Question: And the IC50 ([2]; mean ± SD of triplicate)?
Answer: 14.9 ± 0.99 µM
